The source of these data is patent publication US6630431B2, “Nail polish lacquer remover” (Board of Trustees of Michigan State University, priority 2001, dated 2003).

The structures appear in SMILES notation.

One data set is described as follows: Vapor pressure. It counts as physicochemical. The conditions noted are these: @ 20° C. As for the experimental part: The vapor pressure of ethyl lactate is 1.6 mmHg @ 20° C. and for diethyl succinate is 0.2 mmHg @ 20° C. These are very favorable for a nail polish removing lacquer.
The conditions of data set [1]: animals; cited from earlier work.

Compound `CCOC(=O)CCC(=O)OCC` [diethyl succinate] showed a vapor pressure in “Vapor pressure” of 0.2 mmHg. In addition, the LD50 data result in data set [1] is “very large doses are required to produce toxic results”.

Turning to `CCOC(=O)C(C)O` (stereo not shown) [ethyl lactate], in “Vapor pressure”, the vapor pressure amounted to 1.6 mmHg. The LD50 data entry in data set [1] was “very large doses are required to produce toxic results”.
